Measured values as given in ChEMBL document CHEMBL1138875, “Design and synthesis of substituted pyridine derivatives as HIF-1alpha prolyl hydroxylase inhibitors” (Bioorg Med Chem Lett, 2006).
pIC50: −log10 of the molar value.

Target: Egl nine homolog 1 (Homo sapiens, UniProt Q9GZT9)
Assay: Inhibition of EGLN1

Chain of Egl nine homolog 1 (Q9GZT9 whole entry): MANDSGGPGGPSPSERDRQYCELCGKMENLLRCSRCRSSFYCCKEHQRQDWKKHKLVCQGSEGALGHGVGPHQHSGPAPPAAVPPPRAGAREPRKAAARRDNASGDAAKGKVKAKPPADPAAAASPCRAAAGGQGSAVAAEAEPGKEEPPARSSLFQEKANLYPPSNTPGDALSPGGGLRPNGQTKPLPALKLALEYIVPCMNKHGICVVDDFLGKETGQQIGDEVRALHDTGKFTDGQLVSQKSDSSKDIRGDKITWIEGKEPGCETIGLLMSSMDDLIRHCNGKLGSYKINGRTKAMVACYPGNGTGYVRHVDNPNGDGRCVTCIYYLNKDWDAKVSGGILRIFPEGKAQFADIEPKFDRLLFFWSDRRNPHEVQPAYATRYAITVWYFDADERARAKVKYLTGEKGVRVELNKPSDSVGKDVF

| SMILES | pIC50 |
| --- | --- |
| O=C(O)CNC(=O)c1ccccn1 | < 4.00 |
| O=C(O)CNC(=O)c1ccc(-c2cccc(Cl)c2)cn1 | < 4.00 |
| O=C(O)CNC(=O)c1cc(-c2ccc(Cl)cc2)ccn1 | < 4.00 |
